Measurements: patent publication US20080051387A1, “TETRAHYDROPYRIDO[3,4-D]PYRIMIDINES AND RELATED ANALOGUES” (priority 2006, published 2008)

These compounds were tested against T1, chimeric human H3 receptor (Homo sapiens, UniProt Q9Y5N1) (assay: Chimeric human H3 receptor screening GTP binding assay (inhibition of histamine-stimulated GTP-gamma35S binding, Example 8)). Conditions: 1 h; assay described in Example 8; symbol "!" in column headed Ki; read-out: Ki ("!": percent inhibition of agonist-induced GTP-gammaS binding to H3).
T1 construct: rat Galpha-i2 (Gnai2, rat); made in house; host or cells: Sf9 insect cells (baculovirus); P2 membranes
Assay type: biochemical
Outline: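 Compound tested at 4 μM against 1 μM histamine stimulation; 125 pM GTP-gamma35S binding measured by filtration and scintillation after 60 min at room temperature. Membranes from Sf9 cells expressing chimeric human H3 plus G-protein subunits, in Tris pH 7.4/NaCl/MgCl2/GDP buffer; values are % inhibition after nonspecific subtraction.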

T1 sequence (Q9Y5N1 with tags, fused parts or gaps): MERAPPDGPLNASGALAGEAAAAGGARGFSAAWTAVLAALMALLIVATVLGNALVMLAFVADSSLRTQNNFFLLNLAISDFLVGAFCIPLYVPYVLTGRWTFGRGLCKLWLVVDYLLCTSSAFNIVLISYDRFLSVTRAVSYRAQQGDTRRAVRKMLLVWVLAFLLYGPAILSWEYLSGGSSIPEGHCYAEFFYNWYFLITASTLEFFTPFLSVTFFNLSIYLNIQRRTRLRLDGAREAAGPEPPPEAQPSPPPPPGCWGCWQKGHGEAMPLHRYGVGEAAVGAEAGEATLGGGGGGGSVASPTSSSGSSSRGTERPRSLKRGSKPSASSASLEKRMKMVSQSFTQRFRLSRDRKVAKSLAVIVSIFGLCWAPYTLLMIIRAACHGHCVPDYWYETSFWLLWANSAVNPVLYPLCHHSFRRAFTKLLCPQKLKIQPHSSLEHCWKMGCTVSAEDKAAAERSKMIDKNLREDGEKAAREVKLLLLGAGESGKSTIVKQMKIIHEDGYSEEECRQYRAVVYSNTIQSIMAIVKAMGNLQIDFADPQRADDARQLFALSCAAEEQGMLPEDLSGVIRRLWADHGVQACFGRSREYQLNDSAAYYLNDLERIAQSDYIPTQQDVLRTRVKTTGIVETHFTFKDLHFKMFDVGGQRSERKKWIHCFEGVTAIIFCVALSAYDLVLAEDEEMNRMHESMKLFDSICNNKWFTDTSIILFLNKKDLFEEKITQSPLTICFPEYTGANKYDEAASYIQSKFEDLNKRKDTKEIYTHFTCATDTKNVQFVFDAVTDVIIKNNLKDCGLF

Inhibition at 4 µM, ≥ 90%:
Cc1c(C(=O)N2CCc3cnc(N4CCN(C5CCC5)CC4)nc3CC2)cnn1-c1ccccc1 [Compound 504, 2-(4-cyclobutylpiperazin-1-yl)-7-[(5-methyl-1-phenyl-1H-pyrazol-4-yl)carbonyl]-6,7,8,9-tetrahydro-5H-pyrimido[4,5-d]azepine]
O=C(c1ccc(Cl)cc1Cl)N1CCc2cnc(N3CCN(C4CCC4)CC3)nc2CC1 [Compound 442, 2-(4-cyclobutylpiperazin-1-yl)-7-(2,4-dichlorobenzoyl)-6,7,8,9-tetrahydro-5H-pyrimido[4,5-d]azepine]
COc1cc(/C=C/C(=O)N2CCc3cnc(N4CCN(C5CCC5)CC4)nc3CC2)cc(OC)c1 [Compound 565, 2-(4-cyclobutylpiperazin-1-yl)-7-[(2E)-3-(3,5-dimethoxyphenyl)prop-2-enoyl]-6,7,8,9-tetrahydro-5H-pyrimido[4,5-d]azepine]
CCc1ccc(C(=O)N2CCc3cnc(N4CCN(C5CCC5)CC4)nc3CC2)s1 [Compound 451, 2-(4-cyclobutylpiperazin-1-yl)-7-[(5-ethyl-2-thienyl)carbonyl]-6,7,8,9-tetrahydro-5H-pyrimido[4,5-d]azepine]
Cc1oc(C(C)(C)C)cc1C(=O)N1CCc2cnc(N3CCN(C4CCC4)CC3)nc2CC1 [Compound 466, 7-(5-tert-butyl-2-methyl-3-furoyl)-2-(4-cyclobutylpiperazin-1-yl)-6,7,8,9-tetrahydro-5H-pyrimido[4,5-d]azepine]
O=C(Cc1ccc(F)cc1)N1CCc2cnc(N3CCN(C4CCC4)CC3)nc2CC1 [Compound 516, 2-(4-cyclobutylpiperazin-1-yl)-7-[(4-fluorophenyl)acetyl]-6,7,8,9-tetrahydro-5H-pyrimido[4,5-d]azepine]
COc1cc(/C=C/C(=O)N2CCc3cnc(N4CCN(C5CCC5)CC4)nc3CC2)ccc1OCc1ccccc1 [Compound 561, 7-{(2E)-3-[4-(benzyloxy)-3-methoxyphenyl]prop-2-enoyl}-2-(4-cyclobutylpiperazin-1-yl)-6,7,8,9-tetrahydro-5H-pyrimido[4,5-d]azepine]
O=C(c1ccccc1Cl)N1CCc2cnc(N3CCN(C4CCC4)CC3)nc2CC1 [Compound 436, 7-(2-chlorobenzoyl)-2-(4-cyclobutylpiperazin-1-yl)-6,7,8,9-tetrahydro-5H-pyrimido[4,5-d]azepine]

Same assay, conditions: 1 h; assay of Example 8; symbol "!" in column headed Ki; read-out: percent inhibition of agonist-induced GTP-gammaS binding to H3

Inhibition at 4 µM, ≥ 90%:
O=C(c1ccno1)N1CCc2cnc(N3CCN(C4CCC4)CC3)nc2CC1 [Compound 200, 2-(4-cyclobutylpiperazin-1-yl)-7-(isoxazol-5-ylcarbonyl)-6,7,8,9-tetrahydro-5H-pyrimido[4,5-d]azepine]
O=C(Cc1ccc(Cl)c(Cl)c1)N1CCc2cnc(N3CCN(C4CCC4)CC3)nc2CC1 [Compound 293, 2-(4-cyclobutylpiperazin-1-yl)-7-[(3,4-dichlorophenyl)acetyl]-6,7,8,9-tetrahydro-5H-pyrimido[4,5-d]azepine]
O=C(/C=C/c1ccccc1)N1CCc2cnc(N3CCN(C4CCC4)CC3)nc2CC1 [Compound 225, 2-(4-cyclobutylpiperazin-1-yl)-7-[(2E)-3-phenylprop-2-enoyl]-6,7,8,9-tetrahydro-5H-pyrimido[4,5-d]azepine]
Cc1ccccc1C(C(=O)N1CCc2cnc(N3CCN(C4CCC4)CC3)nc2CC1)C(C)C (stereo not shown) [Compound 351, 2-(4-cyclobutylpiperazin-1-yl)-7-[3-methyl-2-(2-methylphenyl)butanoyl]-6,7,8,9-tetrahydro-5H-pyrimido[4,5-d]azepine]
O=C(Cc1ccc(Cl)cc1Cl)N1CCc2cnc(N3CCN(C4CCC4)CC3)nc2CC1 [Compound 296, 2-(4-cyclobutylpiperazin-1-yl)-7-[(2,4-dichlorophenyl)acetyl]-6,7,8,9-tetrahydro-5H-pyrimido[4,5-d]azepine]
O=C(C1c2ccccc2Oc2ccccc21)N1CCc2cnc(N3CCN(C4CCC4)CC3)nc2CC1 [Compound 358, 2-(4-cyclobutylpiperazin-1-yl)-7-(9H-xanthen-9-ylcarbonyl)-6,7,8,9-tetrahydro-5H-pyrimido[4,5-d]azepine]
O=C(/C=C/c1cc2c(cc1Br)OCO2)N1CCc2cnc(N3CCN(C4CCC4)CC3)nc2CC1 [Compound 589, 7-[(2E)-3-(6-bromo-1,3-benzodioxol-5-yl)prop-2-enoyl]-2-(4-cyclobutylpiperazin-1-yl)-6,7,8,9-tetrahydro-5H-pyrimido[4,5-d]azepine]
O=C(Cc1ccc(Cl)cc1)N1CCc2cnc(N3CCN(C4CCC4)CC3)nc2CC1 [Compound 285, 7-[(4-chlorophenyl)acetyl]-2-(4-cyclobutylpiperazin-1-yl)-6,7,8,9-tetrahydro-5H-pyrimido[4,5-d]azepine]
c1ccc2c(CN3CCc4cnc(N5CCN(C6CCC6)CC5)nc4CC3)ccnc2c1 [Compound 236, 2-(4-cyclobutylpiperazin-1-yl)-7-(quinolin-4-ylmethyl)-6,7,8,9-tetrahydro-5H-pyrimido[4,5-d]azepine]
O=C(Cc1ccc(F)cc1F)N1CCc2cnc(N3CCN(C4CCC4)CC3)nc2CC1 [Compound 286, 2-(4-cyclobutylpiperazin-1-yl)-7-[(2,4-difluorophenyl)acetyl]-6,7,8,9-tetrahydro-5H-pyrimido[4,5-d]azepine]
CC(C)c1ccc(C(=O)N2CCc3cnc(N4CCN(C5CCC5)CC4)nc3CC2)cc1 [Compound 205, 2-(4-cyclobutylpiperazin-1-yl)-7-(4-isopropylbenzoyl)-6,7,8,9-tetrahydro-5H-pyrimido[4,5-d]azepine]

Same assay, conditions: symbol ! in Ki; test compound 4 μM, 1 μM histamine; read-out: percent inhibition of agonist-induced GTP-gammaS binding to H3

Inhibition at 4 µM, ≥ 90%:
CCCC(=O)N1CCc2c(ncnc2N2CCN(C3CCC3)CC2)C1 [Compound 43, 7-butyryl-4-(4-cyclobutylpiperazin-1-yl)-5,6,7,8-tetrahydropyrido[3,4-d]pyrimidine]
Cn1ccnc1CN1CCc2c(ncnc2N2CCN(C3CCC3)CC2)C1 [Compound 71, 4-(4-cyclobutylpiperazin-1-yl)-7-[(1-methyl-1H-imidazol-2-yl)methyl]-5,6,7,8-tetrahydropyrido[3,4-d]pyrimidine]
COc1ccccc1CN1CCc2c(ncnc2N2CCN(C3CCC3)CC2)C1 [Compound 78, 4-(4-cyclobutylpiperazin-1-yl)-7-(2-methoxybenzyl)-5,6,7,8-tetrahydropyrido[3,4-d]pyrimidine]
CCn1cncc1CN1CCc2nc(N3CCN(C4CCC4)CC3)ncc2C1 [Compound 642, 2-(4-cyclobutylpiperazin-1-yl)-6-[(1-ethyl-1H-imidazol-5-yl)methyl]-5,6,7,8-tetrahydropyrido[4,3-d]pyrimidine]
c1ccc2ncc(CN3CCc4nc(N5CCN(C6CCC6)CC5)ncc4C3)cc2c1 [Compound 618, 2-(4-cyclobutylpiperazin-1-yl)-6-(quinolin-3-ylmethyl)-5,6,7,8-tetrahydropyrido[4,3-d]pyrimidine]
CCCN1CCc2nc(N3CCN(C4CCC4)CC3)ncc2C1 [Compound 627, 2-(4-cyclobutylpiperazin-1-yl)-6-propyl-5,6,7,8-tetrahydropyrido[4,3-d]pyrimidine]
c1ccc2c(CN3CCc4ncnc(N5CCN(C6CCC6)CC5)c4CC3)ccnc2c1 [Compound 151, 4-(4-cyclobutylpiperazin-1-yl)-7-(quinolin-4-ylmethyl)-6,7,8,9-tetrahydro-5H-pyrimido[4,5-d]azepine]
Fc1cccc(CN2CCc3nc(N4CCN(C5CCC5)CC4)ncc3C2)c1 [Compound 612, 2-(4-cyclobutylpiperazin-1-yl)-6-(3-fluorobenzyl)-5,6,7,8-tetrahydropyrido[4,3-d]pyrimidine]
COc1ccc(CN2CCc3nc(N4CCN(C5CCC5)CC4)ncc3C2)c(OC)c1 [Compound 624, 2-(4-cyclobutylpiperazin-1-yl)-6-(2,4-dimethoxybenzyl)-5,6,7,8-tetrahydropyrido[4,3-d]pyrimidine]
Cc1noc(C)c1C(=O)N1CCc2c(ncnc2N2CCN(C3CCC3)CC2)C1 [Compound 37, 4-(4-cyclobutylpiperazin-1-yl)-7-[(3,5-dimethylisoxazol-4-yl)carbonyl]-5,6,7,8-tetrahydropyrido[3,4-d]pyrimidine]
c1ccc(CN2CCc3c(ncnc3N3CCN(CCCN4CCCCC4)CC3)C2)cc1 [Compound 21, 7-benzyl-4-[4-(3-piperidin-1-ylpropyl)piperazin-1-yl]-5,6,7,8-tetrahydropyrido[3,4-d]pyrimidine]
O=C(c1ccccn1)N1CCc2c(ncnc2N2CCN(C3CCC3)CC2)C1 [Compound 35, 4-(4-cyclobutylpiperazin-1-yl)-7-(pyridin-2-ylcarbonyl)-5,6,7,8-tetrahydropyrido[3,4-d]pyrimidine]
CCCC(C)CN1CCc2c(ncnc2N2CCN(C3CCC3)CC2)C1 (stereo not shown) [Compound 90, 4-(4-cyclobutylpiperazin-1-yl)-7-(2-methylpentyl)-5,6,7,8-tetrahydropyrido[3,4-d]pyrimidine]
CC(C1CCOC1)N1CCc2c(ncnc2N2CCN(C3CCC3)CC2)C1 (stereo not shown) [Compound 127, 4-(4-cyclobutylpiperazin-1-yl)-7-[1-(tetrahydrofuran-3-yl)ethyl]-5,6,7,8-tetrahydropyrido[3,4-d]pyrimidine]
CCCCCCN1CCc2nc(N3CCN(C4CCC4)CC3)ncc2C1 [Compound 630, 2-(4-cyclobutylpiperazin-1-yl)-6-hexyl-5,6,7,8-tetrahydropyrido[4,3-d]pyrimidine]
